According to patent US20220354827A1 (priority 2019, published 2022):
Where two headings read alike, the source gives them in different places.

Key:
[1] = tested on: iPSCs derived immature neurons
[2] = tested on: ATP-mediated elevation of cytosolic calcium in cells from Alzheimer's disease patients; conditions: for peak elevation of [Ca2+]c: ATP 30 μM, percentage of baseline
Experimental: The changes of cytosolic Ca^2+ concentration ([Ca^2+ ]c) of iPSCs after ATP exposure were measured using jellyfish photoprotein aequorin-based probe. 7.5-1.2×10^4 cells were plated on 12 mm coverslips in 24 well plate, grow to 50-60% confluence then transfected with the cyt-Aeq plasmid using Lipofectamine 3000 Transfection Reagent (Thermo Fisher Scientific) according to the manufacturer's instruction. The next day, the transfected cells were incubated with 5 μM coelenterazine for 1 h in modified Krebs-Ringer buffer (in mM: 140 NaCl, 2.8 KCl, 2 MgCl2, 10 Hepes, 11 glucoses, pH 7.4) supplemented with 1 mM CaCl2 and then were transferred to the perfusion chamber. All aequorin measurements were carried out in KRB, anesthetics were added to the same medium as specified. The experiments were performed in a custom-built aequorin recording system. For extracellular Ca^2+ free experiments, Ca^2+ free buffer was used (KRB without Ca^2+ with 5 mM EGTA). The experiments were terminated by lysing the cells with 100 μM digitonin in a hypotonic Ca^2+-rich solution (10 mM CaCl2 in H2O), thus discharging the remaining aequorin pool. The light signal was collected and calibrated into [Ca^2+ ]c values by an algorithm based on the Ca^2+ response curve of aequorin at physiological conditions of pH, [Mg^2+], and ionic strength, as previously described by Filadi R, et al., PNAS 2015; 201504880; Bonora M, et al., Nat Protoc 2013; 8:2105, each of which is incorporated by reference in its entirety.

[3] = tested on: induced pluripotent stem cells (iPSCs) from Alzheimer's disease (AD) patients; conditions: 24 h; for increase of MTT (cell viability): dantrolene 30 μM
Experimental: (§1) Human control (AG02261) and sporadic Alzheimer's disease (AG11414) iPSCs were obtained from John A. Kessler's lab. Familial Alzheimer's disease (GM24675) iPSCs were purchased from Coriell Institute. Each type of iPSC was generated from skin fibroblasts of one heathy human subject or one patient diagnosed of either SAD or FAD. The human pluripotent stem cells were maintained on Matrigel coated plates (BD Biosciences) in mTeSR™1 medium (Catalog #05850, Stem cell Technologies) and were cultured in a 5% CO2 humidified atmosphere at 37° C. The culture medium was changed every day.
The cell viability on different wells in 96-well plates was determined using the MTT (3-(4,5-dimethylthiazol-2-yl)-2,5-diphenyltetrazolium bromide, Sigma-Aldrich, St. Louis, Mo.) reduction assay at 24 h as previously described by Qiao H, et al., Anesthesiology 2017; 127:490; Ren G, et al., Sci Rep 2017; 7:12378, each of which is incorporated by reference in its entirety. After being washed with PBS, the samples were incubated with fresh culture medium containing MTT (0.5 mg/mL in the medium) at 37° C. for 4 h in the dark. The medium was then removed and formazan was solubilized with dimethyl sulfoxide (DMSO). The absorbance was measured at 540 nm with plate reader (Synergy™ H1 microplate reader, BioTek, Winooski, Vt.).

[4] = tested on: induced pluripotent stem cells (iPSCs) from Alzheimer's disease (AD) patients; conditions: FAD cells; vs DMSO vehicle
Experimental: as §1

iPSC from AD patients = conditions: compared with DMSO
Experimental: As described previously by Ren G, et al., Sci Rep 2017; 7:12378, which is incorporated by reference in its entirety, LysoTracker® Red DND-99 (Molecular Probe, Eugene, Oreg.) probe stock solution was diluted to a working concentration of 50 nM in HBSS+. IPSCs cells were plated on coverslips coated with Matrigel (BD Biosciences) in mTeSR™1 (Catalog #05850). After being washed three times with HBSS+, the cells were loaded with pre-warmed (37° C.) probe containing HBSS+ and incubated for 1 h at 37° C. Fresh medium was added to replace the labeling solution. The cells were observed by a fluorescent microscope fitted with the correct filter set for the probe used, to determine if the cells were sufficiently fluorescent. LysoTracker Red used an […].

[5] = tested on: cortical neurons generated from SAD and FAD patient iPSCs; conditions: dantrolene for 3 days
[6] = tested on: cortical neurons generated from SAD and FAD patient iPSCs; conditions: FAD cells; dantrolene treatment
[7] = tested on: NMDA mediated elevation of cytosolic Ca2+ concentrations in iPSC from AD patients
[8] = tested on: vacuolar-type H+-ATPase (V-ATPase) in lysosomes (LAMP-2) of iPSC; conditions: dantrolene 30 μM
[9] = tested on: LC3II in iPSCs from AD patients
Experimental: Western blotting was performed according to the standard procedure. Total protein extracts from iPSCs cells were obtained by lysing the cells in ice-cold lysis buffer (50 mM Tris-HCl, 150 mM NaCl and 1% Triton X-100) in the presence of a cocktail of protease inhibitors, as described by Hollomon, M G, et al., BMC Cancer 2013; 13:500, which is incorporated by reference in its entirety. After centrifugation, the supernatant was collected, and the total protein was quantified using a bicinchoninic acid (BCA) protein assay kit (Thermo Scientific, Rockford, Ill.). Equal amounts of protein for each lane were loaded and separated on 15% sodium dodecyl sulfate-polyacrylamide gel electrophoresis (SDSPAGE).
After electrophoresis, proteins were transferred onto a polyvinylidene fluoride (PVDF) membrane. The membranes were blocked with 5% fat-free milk dissolved in PBS-T for 1 h at room temperature, and then stained with primary antibody at 4° C. overnight. After the wash with PBS-T, the membranes were incubated with secondary antibodies (HRP conjugated anti-rabbit and anti-mouse IgG) at 1:1,000 dilutions, and β-actin served as a loading control. Signals were detected with an enhanced chemiluminescence detection system (Millipore, Billerica, Mass.) and quantified by scanning densitometry.

[10] = intranasal 5 mg/kg, 3 times/wk, 3 weeks; vs vehicle
[11] = intranasal 5 mg/kg, 3 times/wk, 4 months; vs vehicle
5XFAD mice = conditions: for hippocampus-dependent memory (CFC) vs untreated 5XFAD controls / hippocampus-independent memory (FC-cued) vs controls: 6 months of age
[12] = tested on: wild type (WT) and 5XFAD (TG) mice; conditions: all groups
[13] = mouse, in vivo
[14] = all groups, 10 months of age
[15] = 11 months of age
[16] = not given; remark: listed apart in the source
[17] = tested on: amyloid plaques in hippocampus and cortex of 5XFAD mice; conditions: IN-DAN, SQ-DAN, ETG and LTG
[18] = tested on: glutamate mediated elevation of mitochondrial calcium concentration in iPSC-derived neurons; conditions: FAD neurons; glutamate 20 mM; dantrolene 20 μM pretreatment 1 hour

glutamate
cytosolic ATP production ([1]; glutamate 20-30 mM, 24 hours): dose dependently decreased

Nc1ncnc2c1ncn2[C@@H]1O[C@H](COP(=O)(O)OP(=O)(O)OP(=O)(O)O)[C@@H](O)[C@H]1O [ATP, adenosine triphosphate]
peak elevation of [Ca2+]c ([2]; FAD cells): 128.3% | peak elevation of [Ca2+]c ([2]; SAD cells): 140.4% | peak elevation of [Ca2+]c ([2]; control cells): 84.1%

O=C1CN(/N=C/c2ccc(-c3ccc([N+](=O)[O-])cc3)o2)C(O)=N1 [dantrolene]
increase of MTT (cell viability) ([3]; iPSC FAD): 67.6% | increase of MTT (cell viability) ([3]; iPSC SAD): 15.1% | cell viability (MTT) ([3]; iPSCs from healthy human subjects (CON), 30 μM): did not affect | cell proliferation, percentage of BrdU-positive cells [4]: greater proliferation | lysotracker-positive acidic vesicles (iPSC from AD patients; FAD cells): significantly increased | lysotracker-positive acidic vesicles (iPSC from AD patients; SAD cells): significantly increased | mean number of dendrite intersections at around 150 μM from soma ([5]; FAD cells): significantly greater | mean number of dendrite intersections at around 150 μM from soma ([5]; SAD cells): significantly greater | PSD95 density [6]: significantly greater | synapsin-1 density [6]: significantly increased | NMDA-mediated elevation of [Ca2+]c and AUC [7]: ameliorated | integrated cytosolic Ca2+ (AUC), ATP+Ca2++DAN vs ATP+Ca2+ ([2]; FAD cells, dantrolene 30 μM pretreatment, 1 mM extracellular Ca2+): significantly reduced | ATP-mediated peak or overall elevation of [Ca2+]c ([2]; absence of extracellular Ca2+ influx, SAD/FAD cells, not statistically significant): only trended to inhibit | integrated cytosolic Ca2+ (AUC), ATP+Ca2++DAN vs ATP+Ca2+ ([2]; control cells, dantrolene 30 μM pretreatment, 1 mM extracellular Ca2+): significantly reduced | peak cytosolic [Ca2+]c, ATP+Ca2++DAN ([2]; dantrolene 30 μM pretreatment, 1 mM extracellular Ca2+, between groups): no significant differences | V-ATPase in lysosomes (LAMP-2) compared with controls ([8]; FAD cells): no longer significantly reduced | V-ATPase in lysosomes (LAMP-2) compared with controls ([8]; SAD cells): remained significantly lower | increase of LC3II level ([9]; FAD iPSCs, P<0.001): 49.4% | increase of LC3II level ([9]; SAD iPSCs, P=0.3483): 47.3% | olfaction, time to retrieve buried food [10]: No significant differences | motor function, time spent on the rotarod [11]: No significant differences | hippocampus-dependent memory (CFC) vs untreated 5XFAD controls (5XFAD mice; IN-DAN, ETG): significantly greater memory | hippocampus-independent memory (FC-cued) vs controls (5XFAD mice; IN-DAN, ETG): significantly improved | hippocampus-dependent memory (CFC) vs 5XFAD controls (5XFAD mice; IN-DAN, ETG, 11 months of age): significantly greater | hippocampus-independent memory (FC-cued) vs 5XFAD CON (5XFAD mice; IN-DAN, ETG, 11 months of age): significantly better | hippocampus-independent memory (FC-cued) vs 5XFAD CON (5XFAD mice; IN-DAN, LTG, 11 months): No significant memory improvement | hippocampus-dependent memory (CFC) vs 5XFAD CON (5XFAD mice; IN-DAN, LTG, 11 months of age): significantly improved | hippocampus-dependent memory (CFC) vs untreated 5XFAD controls (5XFAD mice; SQ-DAN, ETG): significantly greater memory | hippocampus-independent memory (FC-cued) vs controls (5XFAD mice; SQ-DAN, ETG): significantly improved | hippocampus-independent memory (FC-cued) vs 5XFAD CON (5XFAD mice; SQ-DAN, ETG, 11 months of age): trended to improve memory but were not statistically different | hippocampus-independent memory (FC-cued) vs 5XFAD CON (5XFAD mice; SQ-DAN, LTG, 11 months): No significant memory improvement | hippocampus-dependent memory (CFC) vs 5XFAD CON (5XFAD mice; SQ-DAN, LTG, 11 months of age): trended to be better but was not statistically significant | number of times the animals crossed the platform ([12]; 10 months): no significant differences | percent time in the target quadrant (probe trial) vs controls ([12]; 10 months): no significant differences | escape latency in place trials vs controls ([12]; 10 months of age): no significant differences | motor function (rotarod) vs control group [13]: No significant differences | olfaction (buried food test) ([14]; 5XFAD): No significant differences | olfaction (buried food test) ([14]; WT): No significant differences | plasma alanine aminotransferase (ALT) activity vs control group (5XFAD, 6-month intranasal treatment in LTG): significantly increased | plasma alanine aminotransferase (ALT) activity vs control group (5XFAD, other treatment groups): No significant differences | plasma alanine aminotransferase (ALT) activity vs control group (WT, 6-month subcutaneous treatment in LTG): significantly increased | plasma alanine aminotransferase (ALT) activity vs control group (WT, other treatment group): No significant difference | hepatic pathology (H&E stained sections) ([15]; 5XFAD ETG mice): No gross differences | hepatic pathology (H&E stained sections) ([15]; WT ETG mice): No gross differences | bodyweight growth curve ([16]; 5XFAD mice, ETG groups): No significant differences | body weight ([16]; WT, 12 months of age): No significant difference | number of amyloid plaques per area (mm^2) in hippocampus and cortex [17]: No significant differences | percent area of the hippocampus and cortex occupied by plaques ([17]; vs control): No significant differences | glutamate-induced reduction of cytosolic ATP concentration ([1]; neurons derived from AD patients): significantly inhibited | glutamate-induced overall exposure (AUC) of mitochondrial calcium concentration [18]: abolished | glutamate-induced peak elevation of mitochondrial calcium concentration [18]: abolished

bafilomycin
LC3II level on co-treatment with dantrolene ([9]; SAD and FAD iPSCs, vs dantrolene alone): further elevated
